# According to ChEMBL document CHEMBL1201862, “PubChem BioAssay data set” (2004):
#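 Assay format: 96-well plates, 48-hour exposure. At the GI50, growth is halved.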 Activity calls are given as the source filed them. No stated cut-off is given here; in the data, active = GI50 up to about 1.1 µM and inactive = higher.
# Experiments:
# Assay in all cases: growth of human tumour cells (NCI), 48 h
# BT-549 = tested on: BT-549
# CAKI-1 = tested on: CAKI-1
# CCRF-CEM = tested on: CCRF-CEM
# HCC 2998 = tested on: HCC 2998
# HCT-116 = tested on: HCT-116
# HCT-15 = tested on: HCT-15
# HT-29 = tested on: HT-29
# IGROV-1 = tested on: IGROV-1
# K562 = tested on: K562
# M14 = tested on: M14
# NCI-H226 = tested on: NCI-H226
# NCI-H23 = tested on: NCI-H23
# NCI-H460 = tested on: NCI-H460
# SK-MEL-2 = tested on: SK-MEL-2
# SW-620 = tested on: SW-620
# UACC-62 = tested on: UACC-62
# UO-31 = tested on: UO-31
# MOLT-4 = tested on: MOLT-4
SMILES,GI50 (BT-549),GI50 (CAKI-1),GI50 (CCRF-CEM),GI50 (HCC 2998),GI50 (HCT-116),GI50 (HCT-15),GI50 (HT-29),GI50 (IGROV-1),GI50 (K562),GI50 (M14),GI50 (NCI-H226),GI50 (NCI-H23),GI50 (NCI-H460),GI50 (SK-MEL-2),GI50 (SW-620),GI50 (UACC-62),GI50 (UO-31),GI50 (MOLT-4)
COC(=O)[C@@H](N1C(=O)c2ccccc2C1=O)C1(C)CC(Cl)=NO1 (stereo partly specified),42.7 µM (inactive),12.7 µM (inactive),> 100 µM (inactive),> 100 µM (inactive),75.5 µM (inactive),> 100 µM,> 100 µM (inactive),17.7 µM (inactive),> 100 µM (inactive),> 100 µM (inactive),38.8 µM (inactive),48.3 µM (inactive),> 100 µM (inactive),> 100 µM (inactive),> 100 µM (inactive),> 100 µM (inactive),> 100 µM (inactive),
COc1ccc(N2C(=O)C3ON(C(C(N)=O)c4ccccc4)C(c4cc5ccccc5c5ccccc45)C3C2=O)cc1 (stereo unspecified),24.7 µM (inactive),9.1 µM (inactive),12.7 µM (inactive),,18.2 µM (inactive),20.4 µM,18 µM (inactive),18.4 µM (inactive),22.9 µM (inactive),17.7 µM (inactive),26.3 µM (inactive),45.7 µM (inactive),> 50 µM (inactive),18.3 µM (inactive),26.9 µM (inactive),10.6 µM (inactive),16.7 µM (inactive),14.5 µM (inactive)
c1ccc2c(CN3CCN(Cc4c[nH]c5ccccc45)CC3)c[nH]c2c1,22 µM (inactive),23.5 µM (inactive),39.9 µM (inactive),1.63 µM (inactive),14.8 µM (inactive),20 µM,17.5 µM (inactive),11.9 µM (inactive),12.7 µM (inactive),15.7 µM (inactive),16.5 µM (inactive),19.8 µM (inactive),12.7 µM (inactive),16.7 µM (inactive),28 µM (inactive),16.3 µM (inactive),14.6 µM (inactive),
CCOC(=O)C1=C(c2ccccc2)C12N(Cc1ccccc1)C(=O)C2(c1ccccc1)c1ccccc1 (stereo unspecified),24.8 µM (inactive),,25.8 µM (inactive),28.1 µM (inactive),36.4 µM (inactive),30.8 µM,43.2 µM (inactive),56.1 µM (inactive),16.5 µM (inactive),43.4 µM (inactive),26.3 µM (inactive),39.1 µM (inactive),28.2 µM (inactive),24 µM (inactive),42.2 µM (inactive),39.5 µM (inactive),28.8 µM (inactive),38.8 µM (inactive)
CC(C)(C)OC(=O)NC(Cc1ccc(OCc2ccccc2)cn1)C(=O)NCc1ccccc1 (stereo unspecified),20.7 µM (inactive),28.6 µM (inactive),12.4 µM (inactive),34.2 µM (inactive),26.5 µM (inactive),24.6 µM,29.9 µM (inactive),32.3 µM (inactive),22.1 µM (inactive),25.8 µM (inactive),,17 µM (inactive),22.7 µM (inactive),14.3 µM (inactive),31.3 µM (inactive),14.5 µM (inactive),34.7 µM (inactive),13.2 µM (inactive)
O=C1C(Cl)=C(OCCCl)C(=O)c2c(O)ccc(O)c21,13.3 µM (inactive),2.38 µM (inactive),0.0813 µM (active),18.5 µM (inactive),0.755 µM (active),2.53 µM,4.73 µM (inactive),7.13 µM (inactive),0.267 µM (active),1.88 µM (inactive),17 µM (inactive),5.75 µM (inactive),18.5 µM (inactive),,2.05 µM (inactive),3.88 µM (inactive),5.36 µM (inactive),0.212 µM (active)
O=C(Oc1ccc(S(=O)(=O)F)cc1F)c1ccccc1Cl,39.2 µM (inactive),64.9 µM (inactive),,42.6 µM (inactive),47.2 µM (inactive),37.5 µM,27 µM (inactive),30.8 µM (inactive),42.1 µM (inactive),30.8 µM (inactive),31 µM (inactive),23.9 µM (inactive),27.3 µM (inactive),54.5 µM (inactive),44.3 µM (inactive),33.6 µM (inactive),18.5 µM (inactive),
O=C(Cn1cc(F)c(=O)[nH]c1=O)C12CC3CC(CC(C3)C1)C2,> 100 µM (inactive),> 100 µM (inactive),> 100 µM (inactive),> 100 µM (inactive),> 100 µM (inactive),> 100 µM,> 100 µM (inactive),> 100 µM (inactive),> 100 µM (inactive),> 100 µM (inactive),,> 100 µM (inactive),> 100 µM (inactive),> 100 µM (inactive),> 100 µM (inactive),> 100 µM (inactive),> 100 µM (inactive),> 100 µM (inactive)
[O-]c1c[n+](CC[n+]2cc([O-])on2)no1,> 100 µM (inactive),> 100 µM (inactive),> 100 µM (inactive),> 100 µM (inactive),> 100 µM (inactive),> 100 µM,> 100 µM (inactive),> 100 µM (inactive),> 100 µM (inactive),> 100 µM (inactive),,> 100 µM (inactive),> 100 µM (inactive),> 100 µM (inactive),> 100 µM (inactive),> 100 µM (inactive),> 100 µM (inactive),> 100 µM (inactive)
COc1ccc2cc(C(C)C(=O)N3C(=O)OCC3(C)C)ccc2c1 (stereo unspecified),> 100 µM (inactive),,> 10 µM (inactive),> 100 µM (inactive),> 100 µM (inactive),> 100 µM,> 100 µM (inactive),> 100 µM (inactive),> 100 µM (inactive),> 100 µM (inactive),> 100 µM (inactive),> 100 µM (inactive),> 100 µM (inactive),,> 100 µM (inactive),> 100 µM (inactive),> 100 µM (inactive),> 100 µM (inactive)
CCN(CC)CCCNc1nncc2c(C)c3[nH]c4ccccc4c3cc12,1.34 µM (inactive),3.61 µM (inactive),0.02 µM (active),0.802 µM (active),,7.57 µM,0.258 µM (active),0.617 µM (active),,1.89 µM (inactive),0.255 µM (active),0.743 µM (active),0.281 µM (active),2.22 µM (inactive),,0.637 µM (active),5.79 µM (inactive),0.0241 µM (active)
Br[Se]c1ccccn1,18.9 µM (inactive),18.7 µM (inactive),27.6 µM (inactive),21.1 µM (inactive),18.3 µM (inactive),19 µM,25.3 µM (inactive),17.5 µM (inactive),24.8 µM (inactive),17.6 µM (inactive),17.5 µM (inactive),20.7 µM (inactive),18.9 µM (inactive),16.4 µM (inactive),23.9 µM (inactive),17.1 µM (inactive),17.1 µM (inactive),
CCOC(=O)c1csc(-c2nc(CCNC(=O)c3ccccc3)sc2Cl)n1,32.7 µM (inactive),,30.5 µM (inactive),> 100 µM (inactive),47 µM (inactive),51.3 µM,> 100 µM (inactive),> 100 µM (inactive),37.1 µM (inactive),58.5 µM (inactive),> 100 µM (inactive),40.9 µM (inactive),34.4 µM (inactive),,> 100 µM (inactive),59.3 µM (inactive),61.2 µM (inactive),34.3 µM (inactive)
O=C1OC2(c3ccc(O)cc3Oc3cc(O)ccc32)c2c1c(-c1ccccc1)c(-c1ccccc1)c(-c1ccccc1)c2-c1ccccc1,23.6 µM (inactive),25.1 µM (inactive),,16.4 µM (inactive),24.4 µM (inactive),18.7 µM,18.7 µM (inactive),19.1 µM (inactive),29.6 µM (inactive),18.2 µM (inactive),46.3 µM (inactive),,17.7 µM (inactive),20 µM (inactive),20.9 µM (inactive),18.7 µM (inactive),25.7 µM (inactive),23.9 µM (inactive)
CC(C)c1ccc2c(c1)C=C1OC(=O)[C@]3(C)CCC[C@@]2(C)C13 (stereo partly specified),> 100 µM (inactive),> 100 µM (inactive),> 100 µM (inactive),> 100 µM (inactive),> 100 µM (inactive),> 100 µM,> 100 µM (inactive),> 100 µM (inactive),> 100 µM (inactive),> 100 µM (inactive),> 100 µM (inactive),> 100 µM (inactive),> 100 µM (inactive),,> 100 µM (inactive),> 100 µM (inactive),> 100 µM (inactive),> 100 µM (inactive)
Nc1cc2c(c3ccccc13)C(CCl)CN2C(=O)c1cc2cc(NC(=O)c3cc4ccccc4o3)ccc2[nH]1 (stereo unspecified),0.00126 µM (active),0.000301 µM (active),0.00194 µM (active),0.00307 µM (active),0.00254 µM (active),0.00382 µM,0.00144 µM (active),0.00578 µM (active),,0.00455 µM (active),0.11 µM (active),0.000551 µM (active),0.000308 µM (active),0.00286 µM (active),0.00456 µM (active),0.00304 µM (active),0.00128 µM (active),0.00046 µM (active)
O=C(O)CCC1(c2ccccc2)NC(=O)NC1=O (stereo unspecified),> 100 µM (inactive),> 100 µM (inactive),> 100 µM (inactive),> 100 µM (inactive),> 100 µM (inactive),> 100 µM,> 100 µM (inactive),> 100 µM (inactive),> 100 µM (inactive),,> 100 µM (inactive),> 100 µM (inactive),> 100 µM (inactive),> 100 µM (inactive),> 100 µM (inactive),> 100 µM (inactive),,
